Measurements: ChEMBL document CHEMBL5653631, “A Potent and Selective ULK1 Inhibitor Suppresses Autophagy and Sensitizes Cancer Cells to Nutrient Stress” (iScience, 2018)

What was measured:
[1] = molecular target: T1, Mitogen-activated protein kinase kinase kinase 5 (Homo sapiens) (UniProt Q99683); test: Inhibition of human recombinant MAP3K5 at 40 nM related to control ULK1
T1 sequence (whole entry): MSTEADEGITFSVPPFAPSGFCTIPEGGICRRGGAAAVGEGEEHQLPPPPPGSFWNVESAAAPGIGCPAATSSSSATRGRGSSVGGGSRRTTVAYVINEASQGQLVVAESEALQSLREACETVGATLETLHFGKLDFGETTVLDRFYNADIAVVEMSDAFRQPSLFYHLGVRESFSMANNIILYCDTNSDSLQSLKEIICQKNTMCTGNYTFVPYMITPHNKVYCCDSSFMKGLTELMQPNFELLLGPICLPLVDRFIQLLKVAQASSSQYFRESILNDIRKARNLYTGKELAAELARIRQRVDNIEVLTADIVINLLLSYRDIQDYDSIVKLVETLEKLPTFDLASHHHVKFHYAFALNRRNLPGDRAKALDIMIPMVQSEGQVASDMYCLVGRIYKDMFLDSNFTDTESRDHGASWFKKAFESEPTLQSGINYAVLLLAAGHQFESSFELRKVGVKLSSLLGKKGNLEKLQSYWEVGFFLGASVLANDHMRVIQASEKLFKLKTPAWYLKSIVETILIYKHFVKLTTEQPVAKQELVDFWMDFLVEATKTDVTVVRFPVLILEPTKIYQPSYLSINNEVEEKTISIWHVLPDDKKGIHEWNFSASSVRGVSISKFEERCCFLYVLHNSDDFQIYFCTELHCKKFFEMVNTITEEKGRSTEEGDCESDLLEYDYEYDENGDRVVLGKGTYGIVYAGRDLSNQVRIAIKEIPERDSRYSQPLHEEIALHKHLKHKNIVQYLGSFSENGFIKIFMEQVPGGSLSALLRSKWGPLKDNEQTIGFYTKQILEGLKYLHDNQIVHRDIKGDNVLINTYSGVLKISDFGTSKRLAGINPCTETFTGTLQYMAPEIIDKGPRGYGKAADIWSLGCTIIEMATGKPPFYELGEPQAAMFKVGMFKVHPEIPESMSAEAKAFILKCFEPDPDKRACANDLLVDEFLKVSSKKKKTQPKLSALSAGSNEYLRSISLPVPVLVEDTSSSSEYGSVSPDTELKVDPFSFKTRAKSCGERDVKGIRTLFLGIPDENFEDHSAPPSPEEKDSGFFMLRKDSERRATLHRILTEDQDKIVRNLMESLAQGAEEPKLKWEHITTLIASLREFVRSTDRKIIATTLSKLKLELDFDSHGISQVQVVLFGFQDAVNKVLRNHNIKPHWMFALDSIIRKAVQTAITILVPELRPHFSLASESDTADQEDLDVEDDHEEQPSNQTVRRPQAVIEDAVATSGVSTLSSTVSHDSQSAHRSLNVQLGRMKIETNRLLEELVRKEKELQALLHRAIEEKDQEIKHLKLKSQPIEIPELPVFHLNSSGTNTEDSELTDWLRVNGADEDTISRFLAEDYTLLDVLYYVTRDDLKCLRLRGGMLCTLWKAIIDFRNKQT

[2] = molecular target: Serine/threonine-protein kinase tousled-like 2 (Homo sapiens) (UniProt Q86UE8); test: Inhibition of human recombinant TLK2 at 500 nM in presence of ATP by radiometric assay relative to control
Serine/threonine-protein kinase tousled-like 2 (Homo sapiens), sequence (Q86UE8 whole entry, looked up): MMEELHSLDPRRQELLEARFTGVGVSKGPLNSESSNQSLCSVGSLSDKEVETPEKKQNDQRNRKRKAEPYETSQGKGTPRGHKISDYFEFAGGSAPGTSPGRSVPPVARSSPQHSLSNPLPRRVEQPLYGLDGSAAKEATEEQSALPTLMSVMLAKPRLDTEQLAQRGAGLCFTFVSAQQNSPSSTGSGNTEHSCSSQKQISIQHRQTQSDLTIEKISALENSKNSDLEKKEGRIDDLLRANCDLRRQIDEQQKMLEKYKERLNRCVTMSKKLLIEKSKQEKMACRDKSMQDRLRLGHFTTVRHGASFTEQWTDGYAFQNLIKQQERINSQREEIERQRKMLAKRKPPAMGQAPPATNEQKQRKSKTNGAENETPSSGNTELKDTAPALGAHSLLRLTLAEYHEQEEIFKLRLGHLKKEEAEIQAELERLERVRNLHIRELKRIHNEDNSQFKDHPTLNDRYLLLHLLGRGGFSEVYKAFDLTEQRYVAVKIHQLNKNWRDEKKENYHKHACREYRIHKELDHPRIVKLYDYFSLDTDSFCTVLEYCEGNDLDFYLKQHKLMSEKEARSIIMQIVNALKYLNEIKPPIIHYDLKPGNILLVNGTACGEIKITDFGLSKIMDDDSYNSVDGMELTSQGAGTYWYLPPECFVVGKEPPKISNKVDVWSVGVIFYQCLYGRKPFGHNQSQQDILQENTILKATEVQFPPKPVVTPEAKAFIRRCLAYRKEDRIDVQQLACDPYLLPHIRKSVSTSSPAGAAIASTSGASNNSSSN

[3] = molecular target: T2, Testis-specific serine/threonine-protein kinase 4 (Homo sapiens) (UniProt Q6SA08); test: Inhibition of human recombinant TSSK4 at 500 nM in presence of ATP by radiometric assay relative to control
T2 sequence (whole entry): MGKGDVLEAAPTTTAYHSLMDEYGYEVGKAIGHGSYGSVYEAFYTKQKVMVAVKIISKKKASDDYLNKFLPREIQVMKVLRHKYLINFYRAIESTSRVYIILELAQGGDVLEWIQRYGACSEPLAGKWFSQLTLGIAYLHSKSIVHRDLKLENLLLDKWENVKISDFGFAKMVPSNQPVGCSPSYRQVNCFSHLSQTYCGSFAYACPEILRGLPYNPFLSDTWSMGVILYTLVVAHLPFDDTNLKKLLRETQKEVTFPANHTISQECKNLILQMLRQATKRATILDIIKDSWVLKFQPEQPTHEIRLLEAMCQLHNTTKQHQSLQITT

[4] = molecular target: T3, Ephrin type-A receptor 8 (Homo sapiens) (UniProt P29322); test: Inhibition of human recombinant EphA8 at 500 nM related to control ULK1
T3 sequence (whole entry): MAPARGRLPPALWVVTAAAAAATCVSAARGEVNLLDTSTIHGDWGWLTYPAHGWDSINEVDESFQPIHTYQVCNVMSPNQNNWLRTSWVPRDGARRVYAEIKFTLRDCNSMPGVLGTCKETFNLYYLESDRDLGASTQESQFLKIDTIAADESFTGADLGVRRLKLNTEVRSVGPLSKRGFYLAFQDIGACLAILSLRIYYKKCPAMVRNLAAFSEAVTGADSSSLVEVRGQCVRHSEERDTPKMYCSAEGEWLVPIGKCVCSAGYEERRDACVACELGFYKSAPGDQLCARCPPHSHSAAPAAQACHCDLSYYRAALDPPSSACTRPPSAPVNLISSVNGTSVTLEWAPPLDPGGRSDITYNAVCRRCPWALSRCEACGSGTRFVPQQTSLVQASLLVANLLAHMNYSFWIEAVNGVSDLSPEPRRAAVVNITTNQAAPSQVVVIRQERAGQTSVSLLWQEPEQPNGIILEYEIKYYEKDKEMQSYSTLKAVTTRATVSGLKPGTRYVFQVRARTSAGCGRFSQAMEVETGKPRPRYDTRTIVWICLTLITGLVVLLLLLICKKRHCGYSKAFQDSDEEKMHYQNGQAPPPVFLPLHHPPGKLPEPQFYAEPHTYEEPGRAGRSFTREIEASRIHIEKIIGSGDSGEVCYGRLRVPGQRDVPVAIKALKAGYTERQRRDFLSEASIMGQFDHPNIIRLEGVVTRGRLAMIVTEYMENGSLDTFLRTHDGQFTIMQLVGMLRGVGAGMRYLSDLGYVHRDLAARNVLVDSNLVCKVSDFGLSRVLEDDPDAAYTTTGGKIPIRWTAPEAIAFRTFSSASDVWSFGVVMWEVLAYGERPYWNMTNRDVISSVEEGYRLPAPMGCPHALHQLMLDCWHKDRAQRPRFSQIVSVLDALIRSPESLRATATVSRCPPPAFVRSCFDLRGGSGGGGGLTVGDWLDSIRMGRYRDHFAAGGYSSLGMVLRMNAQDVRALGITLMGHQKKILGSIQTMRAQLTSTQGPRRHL

[5] = molecular target: Tyrosine-protein kinase Fer (Homo sapiens) (UniProt P16591); test: Inhibition of human recombinant FER at 500 nM related to control ULK1
Tyrosine-protein kinase Fer (Homo sapiens), sequence (P16591 whole entry, looked up): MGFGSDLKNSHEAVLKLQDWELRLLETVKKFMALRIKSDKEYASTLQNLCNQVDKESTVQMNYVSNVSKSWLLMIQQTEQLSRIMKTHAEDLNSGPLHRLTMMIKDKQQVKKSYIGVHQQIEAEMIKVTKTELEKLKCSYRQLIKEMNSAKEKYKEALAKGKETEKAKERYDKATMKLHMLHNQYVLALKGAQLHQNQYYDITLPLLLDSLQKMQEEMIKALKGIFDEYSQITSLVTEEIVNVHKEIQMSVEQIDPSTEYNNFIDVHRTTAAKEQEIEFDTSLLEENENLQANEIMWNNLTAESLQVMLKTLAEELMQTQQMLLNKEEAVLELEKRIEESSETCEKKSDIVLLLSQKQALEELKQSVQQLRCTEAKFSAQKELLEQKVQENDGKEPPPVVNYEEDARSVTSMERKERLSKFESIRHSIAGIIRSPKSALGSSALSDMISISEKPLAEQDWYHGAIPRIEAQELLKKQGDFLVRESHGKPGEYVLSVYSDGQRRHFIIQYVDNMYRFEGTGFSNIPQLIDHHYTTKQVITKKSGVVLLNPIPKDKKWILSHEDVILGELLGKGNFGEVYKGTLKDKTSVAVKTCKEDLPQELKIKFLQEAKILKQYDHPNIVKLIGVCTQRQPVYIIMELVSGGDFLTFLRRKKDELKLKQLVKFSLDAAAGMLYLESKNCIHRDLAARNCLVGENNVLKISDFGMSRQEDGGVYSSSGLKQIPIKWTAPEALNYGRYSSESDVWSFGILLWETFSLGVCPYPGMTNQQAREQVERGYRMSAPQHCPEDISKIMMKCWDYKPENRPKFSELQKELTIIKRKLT

[6] = molecular target: [Pyruvate dehydrogenase (acetyl-transferring)] kinase isozyme 4, mitochondrial (Homo sapiens) (UniProt Q16654); test: Inhibition of human recombinant PDHK4 at 15 nM related to control ULK1
[Pyruvate dehydrogenase (acetyl-transferring)] kinase isozyme 4, mitochondrial (Homo sapiens), sequence (Q16654 whole entry, looked up): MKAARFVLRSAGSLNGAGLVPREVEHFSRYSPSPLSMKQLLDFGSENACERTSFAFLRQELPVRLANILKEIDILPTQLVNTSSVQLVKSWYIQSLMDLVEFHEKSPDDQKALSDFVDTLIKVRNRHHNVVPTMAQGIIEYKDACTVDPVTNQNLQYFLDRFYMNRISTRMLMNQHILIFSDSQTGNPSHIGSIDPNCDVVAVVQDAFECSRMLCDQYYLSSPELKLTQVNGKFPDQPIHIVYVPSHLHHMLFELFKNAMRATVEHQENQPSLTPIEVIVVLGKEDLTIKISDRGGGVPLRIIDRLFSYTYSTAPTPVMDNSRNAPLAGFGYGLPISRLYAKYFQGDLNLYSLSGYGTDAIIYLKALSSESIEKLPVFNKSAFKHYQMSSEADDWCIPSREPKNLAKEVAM

[7] = molecular target: Tau-tubulin kinase 2 (Homo sapiens) (UniProt Q6IQ55); test: Inhibition of human recombinant TTBK2 at 15 nM related to control ULK1
Tau-tubulin kinase 2 (Homo sapiens), sequence (Q6IQ55 whole entry): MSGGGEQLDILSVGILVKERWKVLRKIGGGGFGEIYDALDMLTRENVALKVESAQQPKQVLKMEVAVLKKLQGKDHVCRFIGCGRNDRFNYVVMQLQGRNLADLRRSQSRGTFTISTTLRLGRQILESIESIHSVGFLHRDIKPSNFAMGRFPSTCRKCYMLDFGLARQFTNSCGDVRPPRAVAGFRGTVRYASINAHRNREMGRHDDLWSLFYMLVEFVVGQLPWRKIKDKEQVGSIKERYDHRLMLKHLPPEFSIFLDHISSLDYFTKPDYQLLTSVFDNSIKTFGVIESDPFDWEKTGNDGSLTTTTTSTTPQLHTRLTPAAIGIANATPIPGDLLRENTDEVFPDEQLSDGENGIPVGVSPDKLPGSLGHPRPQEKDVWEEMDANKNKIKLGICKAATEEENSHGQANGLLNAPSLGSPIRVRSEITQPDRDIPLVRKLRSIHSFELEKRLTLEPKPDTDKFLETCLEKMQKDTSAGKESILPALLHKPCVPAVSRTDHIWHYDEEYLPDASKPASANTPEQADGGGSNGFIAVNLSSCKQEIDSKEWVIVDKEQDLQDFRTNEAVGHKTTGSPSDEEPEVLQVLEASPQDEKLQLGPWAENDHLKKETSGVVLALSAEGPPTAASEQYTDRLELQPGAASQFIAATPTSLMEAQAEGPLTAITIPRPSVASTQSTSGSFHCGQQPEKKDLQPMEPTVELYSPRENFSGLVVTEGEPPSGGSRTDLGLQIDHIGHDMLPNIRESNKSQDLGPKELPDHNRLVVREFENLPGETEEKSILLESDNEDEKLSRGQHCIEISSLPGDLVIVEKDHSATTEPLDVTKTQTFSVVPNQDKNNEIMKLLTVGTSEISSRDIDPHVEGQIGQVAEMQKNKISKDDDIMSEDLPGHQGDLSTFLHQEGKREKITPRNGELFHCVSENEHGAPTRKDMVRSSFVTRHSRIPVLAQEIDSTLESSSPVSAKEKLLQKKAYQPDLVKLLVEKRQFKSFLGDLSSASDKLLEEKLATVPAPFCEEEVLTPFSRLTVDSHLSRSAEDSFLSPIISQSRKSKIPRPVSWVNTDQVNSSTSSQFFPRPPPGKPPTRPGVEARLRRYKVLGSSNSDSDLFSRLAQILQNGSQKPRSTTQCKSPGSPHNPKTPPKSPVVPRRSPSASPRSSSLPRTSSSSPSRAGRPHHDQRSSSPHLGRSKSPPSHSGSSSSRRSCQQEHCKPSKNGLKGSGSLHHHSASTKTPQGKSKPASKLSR

O=C(N[C@@H](C1CC1)C(F)(F)F)c1cc(-c2cnn3cc(-c4ccc(F)cc4)cnc23)cs1
fold change (FC) [1]: 0

CNC(=O)c1ccccc1Oc1nc(Nc2cc(OC)c(OC)c(OC)c2)ncc1Br
inhibition [2]: 0% | inhibition [3]: 0% | fold change (FC) [4]: 0.03 | fold change (FC) [5]: 0

CC(C)[C@H](NC(=O)c1cc(-c2cnn3cc(-c4ccc(OCCN5CCCCC5)cc4)cnc23)cs1)C(F)(F)F
fold change (FC) [6]: 0.02 | fold change (FC) [7]: 0
